Experimental data: ChEMBL document CHEMBL4020759, “Sulfoximines as ATR inhibitors: Analogs of VE-821” (2017)
The source made the active and inactive calls. The calls are words filed in the database; no cut-off is given here.

Tests used:
SK-OV-3 = assay: Growth inhibition of human SKOV3 cells assessed as cell growth at 10 uM incubated for 48 hrs by sulforhodamine B assay; assay type: functional; conditions: SK-OV-3, 48 h, read-out: Activity
OVCAR-5 = assay: Growth inhibition of human OVCAR5 cells assessed as cell growth at 10 uM incubated for 48 hrs by sulforhodamine B assay; assay type: functional; conditions: OVCAR-5, 48 h, read-out: Activity
NCI/ADR-RES = assay: Growth inhibition of human NCI/ADR-RES cells assessed as cell growth at 10 uM incubated for 48 hrs by sulforhodamine B assay; assay type: functional; conditions: read-out: Activity
HOP-92 = assay: Growth inhibition of human HOP92 cells assessed as cell growth at 10 uM incubated for 48 hrs by sulforhodamine B assay; assay type: functional; conditions: HOP-92, 48 h, read-out: Activity
[1] = target: Serine/threonine-protein kinase ATR (Homo sapiens) (UniProt Q13535); assay: Inhibition of ATR in human Ramos cells assessed as reduction in […] at 10 uM after 48 hrs by Western blot analysis; assay type: cell-based
[2] = target: Serine-protein kinase ATM (Homo sapiens) (UniProt Q13315); assay: Inhibition of ATM in human U2OS cells assessed as reduction in hydroxyurea-induced H2AX phosphorylation at Ser139 residue at 3 to 10 uM preincubated for 1 hr followed by hydroxyurea challenge measured after 2 hrs by Western blot analysis; assay type: cell-based
A549 = assay: Growth inhibition of human A549/ATCC cells assessed as cell growth at 10 uM incubated for 48 hrs by sulforhodamine B assay; assay type: functional; conditions: A549, 48 h, read-out: Activity
PC-3 = assay: Growth inhibition of human PC3 cells assessed as cell growth at 10 uM incubated for 48 hrs by sulforhodamine B assay; assay type: functional; conditions: PC-3, 48 h, read-out: Activity
SF-268 = assay: Growth inhibition of human SF268 cells assessed as cell growth at 10 uM incubated for 48 hrs by sulforhodamine B assay; assay type: functional; conditions: SF-268, 48 h, read-out: Activity
HCT-116 = assay: Growth inhibition of human HCT116 cells assessed as cell growth at 10 uM incubated for 48 hrs by sulforhodamine B assay; assay type: functional; conditions: HCT-116, 48 h, read-out: Activity
U-251 = assay: Growth inhibition of human U251 cells assessed as cell growth at 10 uM incubated for 48 hrs by sulforhodamine B assay; assay type: functional; conditions: U-251, 48 h, read-out: Activity
KM12 = assay: Growth inhibition of human KM12 cells assessed as cell growth at 10 uM incubated for 48 hrs by sulforhodamine B assay; assay type: functional; conditions: KM12, 48 h, read-out: Activity
SN12C = assay: Growth inhibition of human SN12C cells assessed as cell growth at 10 uM incubated for 48 hrs by sulforhodamine B assay; assay type: functional; conditions: read-out: Activity
NCI-H226 = assay: Growth inhibition of human NCI-H226 cells assessed as cell growth at 10 uM incubated for 48 hrs by sulforhodamine B assay; assay type: functional; conditions: NCI-H226, 48 h, read-out: Activity
LOX IMVI = assay: Growth inhibition of human LOXIMVI cells assessed as cell growth at 10 uM incubated for 48 hrs by sulforhodamine B assay; assay type: functional; conditions: read-out: Activity
HCC 2998 = assay: Growth inhibition of human HCC2998 cells assessed as cell growth at 10 uM incubated for 48 hrs by sulforhodamine B assay; assay type: functional; conditions: HCC 2998, 48 h, read-out: Activity
UACC-257 = assay: Growth inhibition of human UACC257 cells assessed as cell growth at 10 uM incubated for 48 hrs by sulforhodamine B assay; assay type: functional; conditions: UACC-257, 48 h, read-out: Activity
MOLT-4 = assay: Growth inhibition of human MOLT4 cells assessed as cell growth at 10 uM incubated for 48 hrs by sulforhodamine B assay; assay type: functional; conditions: MOLT-4, 48 h, read-out: Activity
HCT-15 = assay: Growth inhibition of human HCT15 cells assessed as cell growth at 10 uM incubated for 48 hrs by sulforhodamine B assay; assay type: functional; conditions: HCT-15, 48 h, read-out: Activity
COLO 205 = assay: Growth inhibition of human COLO205 cells assessed as cell growth at 10 uM incubated for 48 hrs by sulforhodamine B assay; assay type: functional; conditions: COLO 205, 48 h, read-out: Activity
SR = assay: Growth inhibition of human SR cells assessed as cell growth at 10 uM incubated for 48 hrs by sulforhodamine B assay; assay type: functional; conditions: read-out: Activity
NCI-H460 = assay: Growth inhibition of human NCI-H460 cells assessed as cell growth at 10 uM incubated for 48 hrs by sulforhodamine B assay; assay type: functional; conditions: NCI-H460, 48 h, read-out: Activity
UO-31 = assay: Growth inhibition of human UO31 cells assessed as cell growth at 10 uM incubated for 48 hrs by sulforhodamine B assay; assay type: functional; conditions: UO-31, 48 h, read-out: Activity
Malme-3M = assay: Growth inhibition of human MALME-3M cells assessed as cell growth at 10 uM incubated for 48 hrs by sulforhodamine B assay; assay type: functional; conditions: read-out: Activity
[3] = target: Serine-protein kinase ATM (Homo sapiens) (UniProt Q13315); assay: Inhibition of ATM in human U2OS cells assessed as reduction in etoposide-induced Chk-2 phosphorylation at Thr68 residue at 10 uM preincubated for 1 hr followed by etoposide challenge measured after 20 mins by Western blot analysis; assay type: cell-based
ACHN = assay: Growth inhibition of human ACHN cells assessed as cell growth at 10 uM incubated for 48 hrs by sulforhodamine B assay; assay type: functional; conditions: read-out: Activity
NCI-H23 = assay: Growth inhibition of human NCI-H23 cells assessed as cell growth at 10 uM incubated for 48 hrs by sulforhodamine B assay; assay type: functional; conditions: NCI-H23, 48 h, read-out: Activity
[4] = target: Serine/threonine-protein kinase ATR (Homo sapiens) (UniProt Q13535); assay: Inhibition of ATR in human U2OS cells assessed as reduction in hydroxyurea-induced Chk-1 phosphorylation at Ser345 residue at 10 uM preincubated for 1 hr followed by hydroxyurea challenge measured after 1 hr by Western blot analysis; assay type: cell-based
BT-549 = assay: Growth inhibition of human BT549 cells assessed as cell growth at 10 uM incubated for 48 hrs by sulforhodamine B assay; assay type: functional; conditions: BT-549, 48 h, read-out: Activity
SW-620 = assay: Growth inhibition of human SW620 cells assessed as cell growth at 10 uM incubated for 48 hrs by sulforhodamine B assay; assay type: functional; conditions: SW-620, 48 h, read-out: Activity
MDA-MB-231 = assay: Growth inhibition of human MDA-MB-231 cells assessed as cell growth at 10 uM incubated for 48 hrs by sulforhodamine B assay; assay type: functional; conditions: MDA-MB-231, 48 h, read-out: Activity
SF-295 = assay: Growth inhibition of human SF295 cells assessed as cell growth at 10 uM incubated for 48 hrs by sulforhodamine B assay; assay type: functional; conditions: SF-295, 48 h, read-out: Activity
MCF7 = assay: Growth inhibition of human MCF7 cells assessed as cell growth at 10 uM incubated for 48 hrs by sulforhodamine B assay; assay type: functional; conditions: MCF7, 48 h, read-out: Activity
MDA-MB-468 = assay: Growth inhibition of human MDA-MB-468 cells assessed as cell growth at 10 uM incubated for 48 hrs by sulforhodamine B assay; assay type: functional; conditions: MDA-MB-468, 48 h, read-out: Activity

Chain of Serine/threonine-protein kinase ATR (Homo sapiens) (Q13535 whole entry, looked up): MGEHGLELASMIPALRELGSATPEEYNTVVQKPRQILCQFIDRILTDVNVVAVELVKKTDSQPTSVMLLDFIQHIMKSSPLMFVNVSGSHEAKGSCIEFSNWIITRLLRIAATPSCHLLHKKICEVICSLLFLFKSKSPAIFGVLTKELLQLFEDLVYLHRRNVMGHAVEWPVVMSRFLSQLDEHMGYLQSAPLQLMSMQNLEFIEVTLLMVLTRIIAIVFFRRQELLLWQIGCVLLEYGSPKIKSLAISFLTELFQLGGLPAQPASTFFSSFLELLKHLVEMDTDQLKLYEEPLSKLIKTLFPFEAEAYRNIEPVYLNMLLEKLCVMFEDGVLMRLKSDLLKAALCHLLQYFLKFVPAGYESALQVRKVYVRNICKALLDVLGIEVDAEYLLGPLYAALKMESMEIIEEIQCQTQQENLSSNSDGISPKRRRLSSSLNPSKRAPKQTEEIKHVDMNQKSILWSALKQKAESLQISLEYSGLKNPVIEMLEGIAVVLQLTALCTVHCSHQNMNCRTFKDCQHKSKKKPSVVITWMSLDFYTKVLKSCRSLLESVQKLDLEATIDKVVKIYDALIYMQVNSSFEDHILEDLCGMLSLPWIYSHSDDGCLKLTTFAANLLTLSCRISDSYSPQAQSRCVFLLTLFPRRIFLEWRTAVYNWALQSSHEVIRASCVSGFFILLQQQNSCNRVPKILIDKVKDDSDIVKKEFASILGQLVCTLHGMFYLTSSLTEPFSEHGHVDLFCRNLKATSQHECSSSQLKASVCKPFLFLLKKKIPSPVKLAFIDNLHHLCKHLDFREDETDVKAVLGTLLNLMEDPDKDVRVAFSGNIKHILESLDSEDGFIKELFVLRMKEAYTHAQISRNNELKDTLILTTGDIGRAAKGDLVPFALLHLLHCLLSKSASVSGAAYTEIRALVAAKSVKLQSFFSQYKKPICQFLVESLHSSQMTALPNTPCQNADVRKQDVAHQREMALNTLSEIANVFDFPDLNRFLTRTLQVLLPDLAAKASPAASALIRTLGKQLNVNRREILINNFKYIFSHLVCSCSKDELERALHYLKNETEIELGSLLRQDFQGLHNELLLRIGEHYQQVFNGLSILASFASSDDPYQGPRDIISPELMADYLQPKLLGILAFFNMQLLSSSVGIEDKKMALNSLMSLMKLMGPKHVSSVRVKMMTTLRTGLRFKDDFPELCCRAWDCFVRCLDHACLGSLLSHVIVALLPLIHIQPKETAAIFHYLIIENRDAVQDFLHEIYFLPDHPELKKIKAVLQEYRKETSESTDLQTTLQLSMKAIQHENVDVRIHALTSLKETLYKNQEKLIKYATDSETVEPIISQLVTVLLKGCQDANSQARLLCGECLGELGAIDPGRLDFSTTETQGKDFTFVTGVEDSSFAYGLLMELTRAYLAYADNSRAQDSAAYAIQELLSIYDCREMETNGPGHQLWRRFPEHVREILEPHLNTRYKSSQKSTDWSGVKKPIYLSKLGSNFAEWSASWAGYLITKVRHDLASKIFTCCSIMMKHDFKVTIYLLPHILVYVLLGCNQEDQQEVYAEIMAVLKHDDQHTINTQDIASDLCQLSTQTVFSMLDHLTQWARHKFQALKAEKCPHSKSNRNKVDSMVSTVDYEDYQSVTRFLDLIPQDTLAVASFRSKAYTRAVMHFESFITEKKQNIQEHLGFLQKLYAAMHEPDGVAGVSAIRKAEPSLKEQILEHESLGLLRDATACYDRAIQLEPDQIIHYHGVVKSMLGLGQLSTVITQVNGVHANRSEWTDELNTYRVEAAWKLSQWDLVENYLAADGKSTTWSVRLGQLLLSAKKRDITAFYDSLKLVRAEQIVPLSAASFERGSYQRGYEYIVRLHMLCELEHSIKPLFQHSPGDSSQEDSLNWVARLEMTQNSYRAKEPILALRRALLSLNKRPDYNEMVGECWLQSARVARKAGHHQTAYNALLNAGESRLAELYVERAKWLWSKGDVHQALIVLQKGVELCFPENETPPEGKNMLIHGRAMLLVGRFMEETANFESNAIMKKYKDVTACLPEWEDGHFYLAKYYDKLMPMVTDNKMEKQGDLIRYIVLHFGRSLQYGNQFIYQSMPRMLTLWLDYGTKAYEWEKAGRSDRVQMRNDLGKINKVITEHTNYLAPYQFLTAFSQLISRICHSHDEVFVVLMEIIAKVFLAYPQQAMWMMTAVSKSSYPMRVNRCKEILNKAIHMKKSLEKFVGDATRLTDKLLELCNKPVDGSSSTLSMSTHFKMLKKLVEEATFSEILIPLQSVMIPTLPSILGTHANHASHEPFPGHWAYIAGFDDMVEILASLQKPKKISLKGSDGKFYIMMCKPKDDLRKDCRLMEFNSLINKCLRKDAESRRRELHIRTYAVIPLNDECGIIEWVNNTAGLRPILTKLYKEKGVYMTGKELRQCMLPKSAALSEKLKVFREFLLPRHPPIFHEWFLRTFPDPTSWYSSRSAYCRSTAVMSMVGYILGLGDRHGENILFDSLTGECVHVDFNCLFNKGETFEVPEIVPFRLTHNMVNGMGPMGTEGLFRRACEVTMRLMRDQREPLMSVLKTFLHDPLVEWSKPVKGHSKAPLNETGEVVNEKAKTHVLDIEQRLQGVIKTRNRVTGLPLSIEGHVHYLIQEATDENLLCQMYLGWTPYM

In the case of `CS(=O)(=NC#N)c1ccc(-c2cnc(N)c(C(=O)Nc3ccccc3)n2)cc1` (stereo not drawn), the growth at 10 µM (SK-OV-3) is reported as 56.8%, the growth at 10 µM (OVCAR-5) is reported as 163% and the growth at 10 µM (NCI/ADR-RES) is reported as 96.9%. For the same compound, the growth at 10 µM (HOP-92) was 106%, the inhibition [1] was “Active” and the inhibition [2] was “inactive”. For the same compound, the growth at 10 µM (A549) was 63.1%, the growth at 10 µM (PC-3) was 90.2% and the growth at 10 µM (SF-268) was 87.7%. It also gave a growth at 10 µM (HCT-116) of 86.8%, a growth at 10 µM (U-251) of 68.5% and a growth at 10 µM (KM12) of 78.2%. For the same compound, the growth at 10 µM (SN12C) was 78.8%, the growth at 10 µM (NCI-H226) was 92% and the growth at 10 µM (LOX IMVI) was 66.5%. It also gave a growth at 10 µM (HCC 2998) of 105%, a growth at 10 µM (UACC-257) of 102% and a growth at 10 µM (MOLT-4) of 64.7%. The growth at 10 µM (HCT-15) was 63.2%, the growth at 10 µM (COLO 205) was 88.3% and the growth at 10 µM (SR) was 44%. The growth at 10 µM (NCI-H460) was 83.9%, the growth at 10 µM (UO-31) was 48.1% and the growth at 10 µM (Malme-3M) was 127%. The inhibition [3] was “inactive”, the growth at 10 µM (ACHN) was 51.4% and the growth at 10 µM (NCI-H23) was 81.2%. For the same compound, the inhibition [4] was “Active”, the growth at 10 µM (BT-549) was 73.4% and the growth at 10 µM (SW-620) was 109%. The growth at 10 µM (MDA-MB-231) was 102%, the growth at 10 µM (SF-295) was 99.2% and the growth at 10 µM (MCF7) was 45.5%. It also gave a growth at 10 µM (MDA-MB-468) of 96.7%.

Work on `C/S(=N\C#N)c1ccc(-c2cnc(N)c(C(=O)Nc3ccccc3)n2)cc1` (stereo not drawn) yielded a growth at 10 µM (SK-OV-3) of 68%, a growth at 10 µM (OVCAR-5) of 120% and a growth at 10 µM (NCI/ADR-RES) of 108%. For the same compound, the growth at 10 µM (HOP-92) was 93.4%, the inhibition [1] was “Active” and the inhibition [2] was “inactive”. It also gave a growth at 10 µM (A549) of 85.4%, a growth at 10 µM (PC-3) of 86% and a growth at 10 µM (SF-268) of 88.4%. For the same compound, the growth at 10 µM (HCT-116) was 73.1%, the growth at 10 µM (U-251) was 93.2% and the growth at 10 µM (KM12) was 86.5%. It also gave a growth at 10 µM (SN12C) of 82.4%, a growth at 10 µM (NCI-H226) of 88.5% and a growth at 10 µM (LOX IMVI) of 77.8%. The growth at 10 µM (HCC 2998) was 109%, the growth at 10 µM (UACC-257) was 106% and the growth at 10 µM (MOLT-4) was 74.5%. The growth at 10 µM (HCT-15) was 64.2%, the growth at 10 µM (COLO 205) was 76.9% and the growth at 10 µM (SR) was 57.1%. It also gave a growth at 10 µM (NCI-H460) of 87.4%, a growth at 10 µM (UO-31) of 49.1% and a growth at 10 µM (Malme-3M) of 80%. For the same compound, the inhibition [3] was “inactive”, the growth at 10 µM (ACHN) was 54% and the growth at 10 µM (NCI-H23) was 98.2%. For the same compound, the inhibition [4] was “Active”, the growth at 10 µM (BT-549) was 83.5% and the growth at 10 µM (SW-620) was 85.9%. For the same compound, the growth at 10 µM (MDA-MB-231) was 101%, the growth at 10 µM (SF-295) was 114% and the growth at 10 µM (MCF7) was 75.7%. For the same compound, the growth at 10 µM (MDA-MB-468) was 84.6%.
